This assay relates to human β2-adrenergic receptor, β-galactosidase fusion protein expressed from λβ2 (λgt11) in E. coli Y1089. The conditions noted are these: 20 pM ICYP; non-radiolabeled agonists at 10^-8, 10^-8 and 10^-4 M; FIG. 3.

The structures appear in SMILES notation.

Protocol: In order to further characterize the specificity of the test by replication on filters, 3 β-adrenergic agonists were tested on [λβ2] cells in bond-competition tests.
The bacterial cells were seeded on slabs of LB-agar of 10 cm of diameter and were grown for 12 hours at 30° C. Circular nitrocellulose filters (of 8.5 cm of diameter), previously drenched in 10 mM IPTG in the case of the expression of [λgt11], [λβ1] and [λβ2] lysogens were then laid above the bacterial colonies; the expression of proteins was induced for 2 hours, at 30° C. for the lysogenic colonies, and at 42° C. for the colonies transformed with pUEX1 and pUEXβ2, before the removal of the filters. The subsequent treatments were carried out at room temperature, with constant rocking. The replications on filter of the bacterial colonies were first incubated for 60 minutes in 10 ml of bond-establishing buffer (90 mM NaCl, 10 mM Tris-HCl pH 7.5) containing 20 mg/ml of bovine serumalbumin, and were then transferred for 90 minutes in 10 ml of bond-establishing buffer containing 20 mg/ml of bovine serumalbumin and 20 pM ICYP (2000 Ci/mmol, Amersham, U.K.). […]

For `CNC[C@H](O)c1ccc(O)c(O)c1` [epinephrine, (-)-epinephrine], the “order of power of competition for the bond of ICYP” value was “isoprotenerol>epinephrine>norepinephrine”.

For the molecule `NC[C@H](O)c1ccc(O)c(O)c1` [norepinephrine, (-)-norepinephrine], the “order of power of competition for the bond of ICYP” value was “isoprotenerol>epinephrine>norepinephrine”.

The values above are taken from patent publication US5328838A, “Method for identifying and/or isolating genes which code for membrane receptors” (Enichem Partecipazioni S.p.A., priority 1990, dated 1994).
